The test system of assay [1] is liver cancer cells. Put plainly: Liver cancer cell death with DGAT1 and DGAT2 inhibitors alone or in combination. It is filed as cell-based, human. As to the method: MHCC97L 6×10^4 12 well plate, treated at 24 hours with 1% FBS DMEM with DGAT1 and DGAT2 inhibitors. Picture taken on day 4.
HEPG2 6×10^4 12 well plate, treated at 24 hours with 1% FBS DMEM with DGAT1 and DGAT2 inhibitors. Picture taken on day 4.
HeG2 8×10^4 12 well plate, treated at 24 hours with 1% FBS DMEM with DGAT1 and DGAT2 inhibitors. Picture taken on day 4.
Huh7 4×10^4 12-well plate, treated at 24 hours with 1% FBS DMEM with DGAT1 and DGAT2 inhibitors. Picture taken on day 4.
Hep3B 6×10^4 12-well plate, treated at 24 hours with 1% FBS DMEM with DGAT1 and DGAT2 inhibitors. Picture taken on day 4.
Huh7 6×10^4 12-well plate, treated at 24 hours with 1% FBS DMEM with DGAT1 and DGAT2 inhibitors. Picture taken on day 4.

Assay [2] has as its system GBM cells. Put plainly: Lipid droplet (BODIPY 493/503) number and TG (TLC) levels in GBM cells. It is filed as cell-based, human. Conditions: 24 hours; for LDs/TG levels: concurrently inhibiting DGAT1 and DGAT2 (A-922500 + PF-06424439), vs DGAT1 inhibition alone; for number of LDs and levels of TG: single inhibitor, 20 μg/ml, all examined GBM cells. How it is done:
(A) RT-qPCR analysis of DGAT1 vs. DGAT2 mRNA expression in GBM cells (U251 and GBM30) and in liver cancer cell line (HepG2). The results are shown as mean±SD (n=3). Statistical significance was determined by a paired Student's t-test. *P<0.01; n.s., not significant. (B) Representative fluorescence imaging of LDs stained with BODIPY 493/503 (green) (upper panels) and TLC analysis of TG levels (lower panels) in GBM and liver cancer cells after treatments with the DGAT1 inhibitor A-922500 (20 μg/ml) or DGAT2 inhibitor PF-06424439 ([…]) alone or in combination for 24 hr. Nuclei were stained with Hoechst 33342 (blue). Scale bar, 10 m. LDs were quantified by the ImageJ software in more than 30 cells in each treatment group (mean±SEM). TG levels were quantified by the ImageJ software and normalized to the untreated control group (mean±SD, n=3). Statistical significance was determined by one-way ANOVA. * P<0.001; #P<0.05. (C) Percentage of dead GBM or liver cancer cells after treatment with DGAT1 or DGAT2 inhibitors alone or in combination for 3 days as in panel B. Live and dead cells were counted after trypan blue staining (mean SD, n=3). Statistical significance was determined by one-way ANOVA. * P<0.0001. (D) Western blot analysis of DGAT1 expression in membrane extracts from GBM and liver cancer cells after infection with shRNA-expressing lentivirus against DGAT1 for 48 hr. […] Statistical significance was determined by one-way ANOVA. * P<0.01. (F) Representative fluorescence images of LDs stained with BODIPY 493/503 (upper panels) and TLC analysis of TG levels (lower panels) in GBM and liver cancer cells after lentivirus-mediated shRNA knockdown of DGAT1 or DGAT2 alone or in combination for 48 hr. […] Quantification and significance analysis of LDs and TG levels in different groups were the same as in panel B. * P<0.001; #P<0.05. […] Cell death percentage and significance were determined as in panel c (mean±SD, n=3). *P<0.0001; #P<0.001.
(A) RT-qPCR analysis of DGAT1 vs. DGAT2 mRNA levels in different types of cancer cell lines using 3 pairs of different primers. […] Statistical significance was determined by Student's t-test. *P<0.01. (B) Representative fluorescence imaging of LDs stained with BODIPY 493/503 (green) (upper panels) and TLC analysis of TG levels (lower panels) in GBM cells after treatment with the DGAT1 inhibitor A-922500 (20 μg/ml) or DGAT2 inhibitor PF-06424439 (20 μg/ml) for 24 hr. […] LDs were quantified by the ImageJ software in more than 30 cells in each treatment group (mean±SEM). TG levels were quantified by the ImageJ software and normalized to control group (mean±SD, n=3). Statistical significance was determined by one-way ANOVA. *P<0.001; #P<0.05. […] Statistical significance was determined by one-way ANOVA. *P<0.001. […]

[3] abbreviates: DGAT1 inhibitor in combination with DGAT2 inhibitor.

Structures are written as SMILES.

For `O=C(Nc1ccccc1)Nc1ccc(-c2ccc(C(=O)[C@@H]3CCC[C@H]3C(=O)O)cc2)cc1` [A-922500], the “liver cancer cell death” value in assay [1] (setting [3]) was “effective to kill liver cancer cells”. Also, the “liver cancer cell death” value in assay [1] (each single inhibitor) is listed as “no ability to induce liver cancer cell death”. Moreover, in assay [2], the LDs/TG levels entry is “did not result in further reduction”; the “number of LDs and levels of TG” value was “dramatically reduced the number of LDs”.

`CS(=O)(=O)O.O=C([C@@H]1CCCN(c2ccc3[nH]c(C4(n5cc(Cl)cn5)CC4)nc3n2)C1)N1CCCC1` [PF-06424439]: in assay [1] (setting [3]), the “liver cancer cell death” value is “effective to kill liver cancer cells”. In addition, the “liver cancer cell death” value in assay [1] (each single inhibitor) is recorded as “no ability to induce liver cancer cell death”. Also, in assay [2], the LDs/TG levels entry is on record as “did not result in further reduction”; the “number of LDs and levels of TG” value was “minor reduction”.
